Assay results taken from patent US12116594B2, “Methods for differentiating cells” (BOND UNIVERSITY LTD, priority 2015, dated 2024).
Entries after “also recorded” stand apart in the source; their conditions may differ.

Test system: Mell hESC
Experiment: Differentiation assay for small molecule differentiation of hESC to hESC-RPEC; ANEB outgrowths scored for % putative RPE morphology at day 14
Format: cell-based, human
Excerpt: FIG. 31 Establishment of differentiation conditions for hESC-RPEC differentiation using small molecules. (A): Differentiation assay for small molecule differentiation of Mell hESC to hESC-RPEC. […] (B): Optimal ANEB size determined between 1000-1500 cells/body. (C): Optimal window for both seeding ANEBs and switching to RDM is day 6. […] For each experiment, ANEB outgrowths were scored for % putative RPE morphology at day 14. Differentiation is represented as heat map scores (0=0%, 1=5-10%, 2=10-15%, 3=15-25%, 5=25-40%, 6=40-55%, 7=55-70%, 8=80+%).
HESC cultures were prepared for differentiation by supplementing mTeSR™1 with 10 uM Y-27632 (Rock inhibitor) (Sigma) for at least one hour prior to single cell dissociation with TrypLE™ Express (Gibco), counted and replated onto plates pre-coated with reduced growth factor Matrigel™ (RGFMG) (Corning) at high density (150,000 cells/cm2) in mTeSR™1 medium, supplemented with 10 uM Y-27632 and cultured overnight. The following day, cultures were refed fresh mTeSR™1 medium, without Rock inhibitor cultured for another 18-48 hours, or until cell cultures were nearly confluent (FIG. 2). Subsequently, cells were cultured in Primary Differentiation Medium (PDM) (containing 100 nM LDN193189, 10 uM SB431542, 5 uM CKI-7, and supplemented with 10 mM Nicotinamide) for 45 hours, before being further supplemented with 10 uM Rock inhibitor for an hour (FIG. 3 A). Differentiating cultures were single cell dissociated using TryPLE™ Express, re-suspended in PDM supplemented with 10 mM Nicotinamide and 10 uM Rock inhibitor, and formed into 3D cell aggregates of approximately 1500 cells/aggregate, using the AggreWellP400 (StemCell Technologies) (FIG. 3B), and cultured overnight. After 12-18 hours, the cell aggregates. The cell aggregates were cultured in suspension in Corning® Costar® Ultra-Low attachment 6-well plates (Corning) in primary differentiation medium (with 10 mM Nicotinamide), until day 4 or day 6, to differentiate as generate 3D aggregates of hESC-derived eyefield cells (ANEBs) to eyefield progenitor cells (FIG. 4A). At day 6, ANEBs were re-seeded onto RGFMG coated plates in RPEC Differentiation Medium (RDM) (containing 250 nM IDE-2 and 3 uM CHIR99021). ANEBs attached to the plate and the outgrowths were assessed for the appearance of immature RPE-like morphology (FIG. 8). ANEB outgrowths were cultured in RDM until day 14. Some putative hESC-RPEC cultures were maintained in an undisrupted form on the plates, while others were single cell dissociated and re-plated onto RGFMG at 150,000 cells/cm2 and cultured in Base Medium 2 (BM2), or RPEC Culture Medium (RCM), both supplemented with 10 uM Y-27632 until medium change the following day. hESC-RPEC cultures that are not dissociated may be maintained in BM2, without further supplementation, or in RMM, to generate mature hESC-RPECs within 21-28 days of the differentiation process (FIG. 9).
The hESC methods of the invention relating to the differentiation of human SCs towards the eyefield progenitor cells, that are Rax+ on day 4 and day 6 (FIG. 6), which has been confirmed by qRT-PCR expression of Rax, LHX2, Pax6(−5a) (FIG. 7). […] FIG. 31 A is a summary of experimental conditions designed to test the ability of each molecule to contribute to efficient RPEC differentiation within a 14-day period. Primary differentiation was from day 0-day 6, followed by secondary differentiation, or RPE differentiation, from day 6 to day 14. Briefly, hESC differentiation to RPE in the absence of LDN is low. […] The role of CKI-7 on differentiation efficiency was tested in combination with a variety of combinations to determine the optimal signalling requirements for differentiation. The small molecule IDE-2 was tested for its ability to functionally replace Activin A in a context for which it had not previously been tested. […] Although the effect of NIC on hESC-RPEC differentiation was positive during differentiation towards to the eyefield, but negative after. […]

[1] = molecule used in secondary (RPE) differentiation conditions, day 6 to day 14
[2] = molecule used in primary differentiation conditions, day 0-day 6

Row | Structure (SMILES) | hESC-RPEC differentiation (% putative RPE morphology at day 14) [1] | hESC-RPEC differentiation (% putative RPE morphology at day 14) [2] | hESC-RPEC differentiation by day 14 (combined use of IDE-2 with the GSK3b inhibitor, secondary differentiation day 6 to day 14)
1 | Cc1c[nH]c(-c2cnc(NCCNc3ccc(C#N)cn3)nc2-c2ccc(Cl)cc2Cl)n1 [CHIR, CHIR99021] | essential for highly efficient RPEC differentiation |  | 
2 | NCCNS(=O)(=O)c1ccc(Cl)c2ccncc12 [CKI-7] |  | greatly enhanced; also recorded: further enhanced | 
3 | O=C(O)CCCCCC(=O)NN=C1CCCC1 [IDE-2] | enhances RPEC differentiation |  | highest degree of hESC-RPEC differentiation
4 | c1ccc2c(-c3cnn4cc(-c5ccc(N6CCNCC6)cc5)cnc34)ccnc2c1 [LDN, LDN193189] |  | improved differentiation | 
5 | NC(=O)c1cccnc1 [NIC, nicotinamide] | suppresses RPEC differentiation; also recorded: negative | positive | 
